Measurements as given in the PolyMetriX glass transition set.
± gives the standard deviation of the reports.

SMILES | glass transition temperature [°C]
*c1ccc(Oc2cc(C(C)(C)C)c(Oc3ccc(N4C(=O)c5ccc(S(=O)(=O)c6ccc7c(c6)C(=O)N(*)C7=O)cc5C4=O)cc3)cc2C(C)(C)C)cc1 (repeat unit) | 263.00
*Nc1ccc(-c2c(-c3ccccc3)cc(-c3ccc(-c4cc(-c5ccccc5)c(-c5ccc(NC(=O)c6ccc(C(*)=O)cc6)cc5)c(-c5ccccc5)c4)cc3)cc2-c2ccccc2)cc1 (repeat unit) | 290.00
*CCCCCCCCCCCCCCCCOC(=O)C/C=C/CC(=O)O* (repeat unit) | -22.00
*C1C(=O)N(c2cc(Br)c(O[Si](C)(C)C)c(Br)c2)C(=O)C1* (repeat unit) | 167.00
*Oc1ccc(-c2ccc(OC(=O)/C=C/c3ccc(/C=C/C(*)=O)cc3)cc2)cc1 (repeat unit) | 243.00
*CCCCCCOC(=O)OCCCCCCN1C(=O)c2ccc(-c3ccc4c(c3)C(=O)N(*)C4=O)cc2C1=O (repeat unit) | 71.00
*Oc1ccc(C(=O)OCCCCCCOC(=O)c2ccc(*)cc2)cc1 (repeat unit) | 15.00
*c1cccc(Oc2cccc(Oc3cccc(N4C(=O)c5c(c(-c6ccccc6)c(-c6ccc(-c7c(-c8ccccc8)c8c(c(-c9ccccc9)c7-c7ccccc7)C(=O)N(*)C8=O)cc6)c(-c6ccccc6)c5-c5ccccc5)C4=O)c3)c2)c1 (repeat unit) | 280.00
*Oc1ccc(OC(=O)c2cccc(Sc3ccc(OC(=O)c4ccc(C(=O)Oc5ccc(Sc6cccc(C(*)=O)c6)cc5)cc4)cc3)c2)cc1-c1ccccc1 (repeat unit) | 128.00
*CC(*)(Cl)C(=O)OCCCC (repeat unit) | 42.00
*CC(*)C(=O)OCCCCOc1ccc(-c2ccc(C#N)cc2)cc1 (repeat unit) | 30.00
*Oc1ccc(CC(NC(=O)CCc2ccc(OC(=O)COCCOCC(*)=O)cc2)C(=O)OC(C)C)cc1 (repeat unit) | 58.00
*CCOCCOCCN1C(=O)c2ccc(C(=O)Oc3ccc(OC(=O)c4ccc5c(c4)C(=O)N(*)C5=O)cc3)cc2C1=O (repeat unit) | 105.00
*CC(*)[Si](C)(C)C (repeat unit) | 137.00
*c1ccc(Cc2ccc(-n3nc(-c4ccccc4)cc3-c3ccc(-c4cc(-c5ccccc5)nn4*)cc3)cc2)cc1 (repeat unit) | 252.00
*CCCCCCCCNC(=O)c1cccc(C(=O)N*)c1 (repeat unit) | 110.00
*C(=O)OCCCCCCOC(=O)c1ccc(NC(=O)c2ccc(N3C(=O)c4ccc(*)cc4C3=O)cc2)cc1 (repeat unit) | 107.00
*c1ccc(Sc2cccc(Sc3ccc(S(*)=O)cc3)c2)cc1 (repeat unit) | 121.00
*CCOCCOP(=O)(/N=N/c1ccc(-c2ccc(/N=N/P(=O)(O*)OC)cc2)cc1)OC (repeat unit) | 22.00
*Nc1ccc(Cc2ccc(NC(=O)Nc3ccccc3CCc3ccc(NC(*)=O)cc3)cc2)cc1 (repeat unit) | 217.00
*C(=O)c1ccc2c(c1)C(=O)N(c1ccc(Cc3cccc(N4C(=O)c5ccc(*)cc5C4=O)c3)cc1)C2=O (repeat unit) | 281.00
*CC(*)c1ccccc1Br (repeat unit) | 149.00

SMILES | glass transition temperature [°C]
*CCCCCCNC(=O)CCc1ccc(CC(=O)N*)cc1 (repeat unit) | 87.00
*c1ccc(Oc2ccc(C(=O)c3ccc(Oc4ccc(-c5c6c(c(*)c7ccccc57)C(=O)N(c5ccccc5F)C6=O)cc4)cc3)cc2)cc1 (repeat unit) | 282.00
*CC(O)CN(*)c1cc(C)c(/N=N/c2ccc([N+](=O)[O-])cc2)c(C)c1 (repeat unit) | 152.00
*CCN(C)C(=O)CCCCCCCCC(=O)N(*)C (repeat unit) | 0.00
*Oc1ccc(CC(NC(=O)CCc2ccc(OC(=O)CCCCC(*)=O)cc2)C(=O)OCc2ccccc2)cc1 (repeat unit) | 54.50
*C(=O)OCCCCCCOC(=O)c1ccc(N2C(=O)c3ccc(*)cc3C2=O)cc1 (repeat unit) | 80.50
*C(=O)c1ccc(Oc2ccc(S(=O)(=O)c3ccc(Oc4ccc(C(=O)c5ccc6c(c5)C(=O)N(c5ccc(Oc7ccc(N8C(=O)c9ccc(*)cc9C8=O)cc7)cc5)C6=O)cc4)cc3)cc2)cc1 (repeat unit) | 241.00
*Oc1ccc(CC(NC(=O)Cc2ccc(OC(=O)COCCOCC(*)=O)cc2)C(=O)OCC)cc1 (repeat unit) | 50.00
*CC(O)CN(C)S(=O)(=O)c1ccc(-c2ccc(S(=O)(=O)N(C)CC(O)COc3ccc(C(C)(C)c4ccc(O*)cc4)cc3)cc2)cc1 (repeat unit) | 101.00
*Cc1ccc(CNC(=O)CCCCCCCCCCCCCC(=O)N*)cc1 (repeat unit) | 90.00
*OC(C)COC(*)=O (repeat unit) [Poly(propylene carbonate)] | 35.73 ± 1.6
*c1ccc(Oc2ccc(-c3cnc4cc5nc(*)cnc5cc4n3)cc2)cc1 (repeat unit) | 353.00
*C1C(=O)N(CCCCCOc2ccc(-c3ccc(C#N)cc3)cc2)C(=O)C1* (repeat unit) | 75.00
*CCCCCCCCCCCCCCNC(=O)NCc1ccc(CNC(=O)N*)cc1 (repeat unit) | 54.00
*c1ccc(Oc2ccc(N3C(=O)c4cc(-c5ccc([Si](C)(C)C)cc5)c(-c5cc6c(cc5-c5ccc([Si](C)(C)C)cc5)C(=O)N(*)C6=O)cc4C3=O)cc2)cc1 (repeat unit) | 348.00
*CCCCCCOC(=O)OCCCCCCOC(=O)OCCCCCCn1c(=O)c2cc3c(=O)n(*)c(=O)c3cc2c1=O (repeat unit) | 17.00
*c1ccc(C(c2ccc(C(=O)OC)cc2)c2ccc(N(*)c3ccc(C)cc3)cc2)cc1 (repeat unit) | 222.00
*OC(=O)C(CC(C)C)NC(=O)CCCCC(=O)NC(CC(C)C)C(=O)OC1COC2C(*)COC12 (repeat unit) | 91.00
*CCCCCCOc1c(OC)cc(/C=C2\CCC/C(=C\c3cc(OC)c(O*)c(OC)c3)C2=O)cc1OC (repeat unit) | 71.00
*Oc1ccc(/N=N/c2ccc(Cc3ccc(/N=N/c4ccc(OC(=O)c5ccc(/N=N/c6ccc(C(*)=O)cc6)cc5)cc4)cc3[N+](=O)[O-])c([N+](=O)[O-])c2)cc1 (repeat unit) | 160.00
*c1ccc(-c2cc(CCCCCCCC)c(-c3ccc(-c4sc(*)cc4CCCCCCCC)cc3)s2)cn1 (repeat unit) | 16.20
*CCC(=O)Nc1ccc(Oc2cccc(NC(=O)CCN3C(=O)c4ccc(C(=O)c5ccc6c(c5)C(=O)N(*)C6=O)cc4C3=O)c2)cc1 (repeat unit) | 224.00

SMILES | glass transition temperature [°C]
*Oc1ccc(C(C)(CC(C)C)c2ccc(OC(*)=S)cc2)cc1 (repeat unit) | 128.00
*Oc1cc(OC(=O)c2ccc(OCCCC)cc2)c(OC(=O)CCCC(*)=O)cc1OC(=O)c1ccc(OCCCC)cc1 (repeat unit) | 59.00
*C(=O)Nc1ccc(Oc2ccc(Oc3ccc(NC(=O)c4ccc5c(c4)C(=O)N(c4ccc(Oc6ccc(C7(c8ccc(Oc9ccc(N%10C(=O)c%11ccc(*)cc%11C%10=O)cc9)cc8)CC8CC7C7CCCC87)cc6)cc4)C5=O)cc3)c(C(C)(C)C)c2)cc1 (repeat unit) | 275.00
*C(=O)Nc1ccc(-c2ccc(NC(=O)c3ccc4c(c3)C(=O)N(c3ccc(Oc5cccc6c(N7C(=O)c8ccc(*)cc8C7=O)cccc56)cc3)C4=O)cc2)cc1 (repeat unit) | 301.00
*C1C2CCC(C2)C1S(*)(=O)=O (repeat unit) | 33.00
*CC(*)c1ccc(OP2(OCCOCCOCCOC)=NP(OCCOCCOCCOC)(OCCOCCOCCOC)=NP(OCCOCCOCCOC)(OCCOCCOCCOC)=N2)cc1 (repeat unit) | -46.00
*O[Si](C)(C)OC(CCl)COc1ccc(C(C)(C)c2ccc(OCC(*)CCl)cc2)cc1 (repeat unit) | 24.00
*C(=O)CCC1(CCC(=O)N2CCN(*)CC2)c2ccccc2-c2ccccc21 (repeat unit) | 145.00
*Oc1ccc(C(=O)c2cccc(NC(=O)c3cccc(C(=O)Nc4cccc(C(=O)c5ccc(*)cc5)c4)c3)c2)cc1 (repeat unit) | 191.00
*Oc1ccc(C(=O)c2ccc(C(=O)c3ccc(*)cc3)cc2)cc1 (repeat unit) | 157.00
*c1cccc(P(=O)(c2ccc(C(F)(F)F)cc2)c2cccc(-n3c(=O)c4cc5c(=O)n(*)c(=O)c5c(-c5cc(C(F)(F)F)cc(C(F)(F)F)c5)c4c3=O)c2)c1 (repeat unit) | 290.00
*CC(=O)NCCCCCCNC(=O)CCc1ccc(O*)cc1 (repeat unit) | 72.00
*c1ccc(Oc2ccc(N3C(=O)c4cccc(Oc5ccc(C(C)(C)c6ccc(Oc7cccc8c7C(=O)N(*)C8=O)cc6)cc5)c4C3=O)cc2)cc1 (repeat unit) | 235.00
*CN1C(=O)c2ccc(C(c3ccc4c(c3)C(=O)N(Cc3nc5cc(-c6ccc7oc(*)nc7c6)ccc5o3)C4=O)(C(F)(F)F)C(F)(F)F)cc2C1=O (repeat unit) | 231.00
*CCCCCCCCCCCCCCCCCCNC(=O)CCCCCCCCCCCCCCCCC(=O)N* (repeat unit) | 50.00
*Oc1ccc(OC(=O)c2ccc(-c3ccc(C(*)=O)cc3)cc2-c2ccccc2)cc1C (repeat unit) | 133.00
*C1C2C/C(=C\C)C(C2)C1* (repeat unit) | 61.40
*Oc1cc(OC(=O)c2ccc(OCCCCCCCCCCCC)cc2)c(OC(=O)CCCC(*)=O)cc1OC(=O)c1ccc(OCCCCCCCCCCCC)cc1 (repeat unit) | 23.00
*CCN(CCOC(=O)OCc1ccc(COC(=O)O*)cc1)c1ccc(/N=N/c2ccc([N+](=O)[O-])cc2)cc1 (repeat unit) | 138.80
*O[Si](*)(C)CCCCCCCCOc1ccc(C(=O)Oc2ccc(C#N)cc2C)cc1 (repeat unit) | 5.50
